Converted amounts (≈) assume the structure as drawn. Like-named read-outs stand apart in the source and are kept apart here.

In assay [1] the test system is methicillin-sensitive Staphylococcus aureus. Kind of assay: MIC by broth micro-dilution (CLSI), methicillin-sensitive S. aureus. The class given is cell-based. The following applies: Staphylococcus aureus, ATCC 29213 / MSSA, MSSA S. aureus ATCC29213; read-out: MIC.
The subject of assay [2] is carbapenem sensitive Escherichia coli. Kind of assay: MIC by broth micro-dilution (CLSI), carbapenem sensitive E. coli. The following applies: Escherichia coli, ATCC25922, ESBL −ve E. coli ATCC25922; read-out: MIC. Type of assay: cell-based.
Assay [3] relates to carbapenemase producing K. pneumoniae. Kind of assay: MIC by broth micro-dilution (CLSI), carbapenemase producing K. pneumoniae. The class given is cell-based, Klebsiella pneumoniae. Particulars: Klebsiella pneumoniae.
Assay [4] deals with carbapenem sensitive Pseudomonas aeruginosa. Kind of assay: MIC by broth micro-dilution (CLSI), carbapenem sensitive P. aeruginosa. The class given is cell-based. The following applies: Pseudomonas aeruginosa, ATCC27853, Meropenem susceptible P. aeruginosa ATCC27853; read-out: MIC.
[5] abbreviates: ATCCBAA1705, KPC-2 K. pneumoniae ATCC BAA-1705, read-out: MIC.

Consider `C[C@@H](NC(=O)[C@H]1CNCCN1)[C@H]1C(=O)N2C(C(=O)O)=C(S[C@@H]3CN[C@H](C(=O)N(C)C)C3)[C@H](C)[C@H]12` [Example 285], for which the MIC was 64 µg/mL (≈ 129 µM) in assay [1], 4 µg/mL (≈ 8.09 µM) in assay [2], 8 µg/mL (≈ 16.2 µM) in assay [3] (setting [5]) and 128 µg/mL (≈ 259 µM) in assay [4].
For the molecule `CNCC(=O)N[C@H](C)[C@H]1C(=O)N2C(C(=O)O)=C(SC3CN(C4=NCCS4)C3)[C@H](C)[C@H]12` [Example 256], the minimal inhibitory concentration (MIC) was 4 µg/mL (≈ 8.82 µM) in assay [1], 1 µg/mL (≈ 2.2 µM) in assay [2], 2 µg/mL (≈ 4.41 µM) in assay [3] (setting [5]) and 32 µg/mL (≈ 70.5 µM) in assay [4].
For the molecule `CNCC(=O)N[C@H](C)[C@H]1C(=O)N2C(C(=O)O)=C(S[C@@H]3CN[C@H](C(=O)N4CC(C)(N)C4)C3)[C@H](C)[C@H]12` [Example 292], the MIC amounted to 128 µg/mL (≈ 259 µM) in assay [1], 4 µg/mL (≈ 8.09 µM) in assay [2], 8 µg/mL (≈ 16.2 µM) in assay [3] (setting [5]) and 16 µg/mL (≈ 32.3 µM) in assay [4].
Regarding `C[C@@H](NC(=O)Cn1cnnn1)[C@H]1C(=O)N2C(C(=O)O)=C(S[C@@H]3CN[C@H](C(=O)N4CC(O)C(CN)C4)C3)[C@H](C)[C@H]12` (single isomer, unassigned) [Example 510], the MIC in assay [1] amounted to 4 µg/mL (≈ 7.1 µM); in assay [2], 0.25 µg/mL (≈ 0.444 µM); in assay [3] (setting [5]), 4 µg/mL (≈ 7.1 µM); in assay [4], 1 µg/mL (≈ 1.77 µM).
Take `C[C@@H](NC(=O)Cn1cnnn1)[C@H]1C(=O)N2C(C(=O)O)=C(S[C@@H]3CN[C@H](C(=O)N4CC[C@@H](NC(=O)CNC(=N)N)C4)C3)[C@H](C)[C@H]12` [Example 567, (4R,5S,6R)-6-((R)-1-(2-(1H-tetrazol-1-yl)acetamido)ethyl)-3-((3S,5S)-5-((R)-3-(2-guanidinoacetamido)pyrrolidine-1-carbonyl)pyrrolidin-3-ylthio)-4-methyl-7-oxo-1-azabicyclo[3.2.0]hept-2-ene-2-carboxylic acid]: the minimal inhibitory concentration (MIC) in assay [1] came to 1 µg/mL (≈ 1.58 µM); in assay [2] it was 0.125 µg/mL (≈ 0.198 µM); in assay [3] (setting [5]) it was 0.5 µg/mL (≈ 0.79 µM); in assay [4], 1 µg/mL (≈ 1.58 µM).
For `C[C@@H](NC(=O)Cn1nnnc1C(C)(C)C)[C@H]1C(=O)N2C(C(=O)O)=C(S[C@@H]3CN[C@H](C(=O)N4CC[C@@H](N)C4)C3)[C@H](C)[C@H]12` [Example 355, (4R,5S,6R)-3-((3S,5S)-5-((R)-3-aminopyrrolidine-1-carbonyl)pyrrolidin-3-ylthio)-6-((R)-1-(2-(5-tert-hutyl-1H-tetrazol-1-yl)acetamido)ethyl)-4-methyl-7-oxo-1-azabicyclo[3.2.0]hept-2-ene-2-carboxylic acid], the MIC turned out to be 4 µg/mL (≈ 6.78 µM) in assay [1], 1 µg/mL (≈ 1.7 µM) in assay [2], 16 µg/mL (≈ 27.1 µM) in assay [3] (setting [5]) and 128 µg/mL (≈ 217 µM) in assay [4].
On to `CNC[C@@H]1CCCN1CC(=O)N[C@H](C)[C@H]1C(=O)N2C(C(=O)O)=C(S[C@@H]3CN[C@H](C(=O)N(C)C)C3)[C@H](C)[C@H]12` [Example 520, (4R,5S,6R)-3-((3S,5S)-5-(dimethylcarbamoyl)pyrrolidin-3-ylthio)-4-methyl-6-((R)-1-(2-((S)-2-((methylamino)methyl)pyrrolidin-1-yl)acetamido)ethyl)-7-oxo-1-azabicyclo[3.2.0]hept-2-ene-2-carboxylic acid], for which the MIC was 16 µg/mL (≈ 29.8 µM) in assay [1], 2 µg/mL (≈ 3.73 µM) in assay [2], 16 µg/mL (≈ 29.8 µM) in assay [3] (setting [5]) and greater than 128 µg/mL in assay [4].
Consider `C[C@@H](NC(=O)Cn1cnnn1)[C@H]1C(=O)N2C(C(=O)O)=C(S[C@@H]3CN[C@H](C(=O)N4CCN(CCO)CC4)C3)[C@H](C)[C@H]12` [Example 416, (4R,5S,6R)-6-((R)-1-(2-(1H-tetrazol-1-yl)acetamido)ethyl)-3-((3S,5S)-5-(4-(2-hydroxyethyl)piperazine-1-carbonyl)pyrrolidin-3-ylthio)-4-methyl-7-oxo-1-azabicyclo[3.2.0]hept-2-ene-2-carboxylic acid], for which the minimum inhibitory concentration (MIC) in assay [1] stood at 4 µg/mL (≈ 6.92 µM); in assay [2] it was 0.5 µg/mL (≈ 0.866 µM); in assay [3] (setting [5]), 2 µg/mL (≈ 3.46 µM); in assay [4] it was 8 µg/mL (≈ 13.8 µM).
For the molecule `C[C@@H](NC(=O)Cn1cnnn1)[C@H]1C(=O)N2C(C(=O)O)=C(S[C@@H]3CN[C@H](C(=O)N4CC[C@@H](O)C4)C3)[C@H](C)[C@H]12` [Example 393, (4R,5S,6R)-6-((R)-1-(2-(1H-tetrazol-1-yl)acetamido)ethyl)-3-((3S,5S)-5-((R)-3-hydroxypyrrolidine-1-carbonyl)pyrrolidin-3-ylthio)-4-methyl-7-oxo-1-azabicyclo[3.2.0]hept-2-ene-2-carboxylic acid], the MIC came out at 4 µg/mL (≈ 7.48 µM) in assay [1], 0.125 µg/mL (≈ 0.234 µM) in assay [2], 1 µg/mL (≈ 1.87 µM) in assay [3] (setting [5]) and 8 µg/mL (≈ 15 µM) in assay [4].
On to `C[C@@H](NC(=O)C(F)F)[C@H]1C(=O)N2C(C(=O)O)=C(SC[C@@H]3C[C@H](NS(N)(=O)=O)CN3)[C@H](C)[C@H]12` [Example 267], for which the MIC was 0.5 µg/mL (≈ 1 µM) in assay [1], 1 µg/mL (≈ 2.01 µM) in assay [2], 2 µg/mL (≈ 4.02 µM) in assay [3] (setting [5]) and greater than 128 µg/mL in assay [4].
For the molecule `C[C@@H](NC(=O)Cn1cncn1)[C@H]1C(=O)N2C(C(=O)O)=C(S[C@@H]3CN[C@H](C(=O)N(C)C)C3)[C@H](C)[C@H]12` [Example 300, (4R,5S,6R)-6-((R) - 1-(2-(1H-1,2,4-triazol-1-yl)acetamido)ethyl)-3-((3S,5S)-5-(dimethylcarbamoyl)pyrrolidin-3-ylthio)-4-methyl-7-oxo-1-azabicyclo[3.2.0]hept-2-ene-2-carboxylic acid], the MIC was 16 µg/mL (≈ 32.5 µM) in assay [1], 1 µg/mL (≈ 2.03 µM) in assay [2], 4 µg/mL (≈ 8.14 µM) in assay [3] (setting [5]) and 128 µg/mL (≈ 260 µM) in assay [4].
The matching figures for `C[C@@H](NC(=O)Cn1cnnn1)[C@H]1C(=O)N2C(C(=O)O)=C(S[C@@H]3CN[C@H](C(=O)N4C[C@@H](NC(=N)N)C[C@H]4CO)C3)[C@H](C)[C@H]12` [Example 576, (4R,5S,6R)-6-((R)-1-(2-(1H-tetrazol-1-yl)acetamido)ethyl)-3-((3S,5S)-5-((2S,4S)-4-guanidino-2-(hydroxymethyl)-pyrrolidine-1-carbonyl)pyrrolidin-3-ylthio)-4-methyl-7-oxo-1-azabicyclo[3.2.0]hept-2-ene-2-carboxylic acid]: 1 µg/mL (≈ 1.65 µM), 0.125 µg/mL (≈ 0.206 µM), 0.5 µg/mL (≈ 0.826 µM) and 0.25 µg/mL (≈ 0.413 µM).
Take `C[C@@H](NC(=O)[C@@H]1CSCN1)[C@H]1C(=O)N2C(C(=O)O)=C(S[C@@H]3CN[C@H](C(=O)N(C)C)C3)[C@H](C)[C@H]12` [Example 270]: the MIC in assay [1] amounted to 4 µg/mL (≈ 8.04 µM); in assay [2] it was 1 µg/mL (≈ 2.01 µM); in assay [3] (setting [5]), 4 µg/mL (≈ 8.04 µM); in assay [4], 64 µg/mL (≈ 129 µM).
With `C[C@@H](NC(=O)Cn1cnnn1)[C@H]1C(=O)N2C(C(=O)O)=C(S[C@@H]3CN[C@H](C(=O)N4C5CCC4CC4(CCNC4)C5)C3)[C@H](C)[C@H]12` (stereo partly drawn) [Example 377, (4R,5S,6R)-6-((R)-1-(2-(1H-tetrazol-1-yl)acetamido)ethyl)-3-((3S,5S)-5-(8-azaspiro[bicyclo[3.2.1]octane-3,3′-pyrrolidine]-8-ylcarbonyl)pyrrolidin-3-ylthio)-4-methyl-7-oxo-1-azabicyclo[3.2.0]hept-2-ene-2-carboxylic acid], the MIC in assay [1] came out at 4 µg/mL (≈ 6.52 µM); in assay [2], 0.25 µg/mL (≈ 0.407 µM); in assay [3] (ATCCBAA1705), 2 µg/mL (≈ 3.26 µM); in assay [4], 8 µg/mL (≈ 13 µM).
With `C[C@@H](NC(=O)Cn1cnnn1)[C@H]1C(=O)N2C(C(=O)O)=C(S[C@@H]3CN[C@H](C(=O)N4CCN(CCCN)CC4)C3)[C@H](C)[C@H]12` [Example 445, (4R,5S,6R)-6-((R)-1-(2-(1H-tetrazol-1-yl)acetamido)ethyl)-3-((3S,5S)-5-(4-(3-aminopropyl)piperazine-1-carbooyl)pyrrolidin-3-ylthio)-4-methyl-7-oxo-1-azabicyclo[3.2.0]hept-2-ene-2-carboxylic acid], the MIC in assay [1] was determined as 2 µg/mL (≈ 3.39 µM); in assay [2] it was 0.25 µg/mL (≈ 0.423 µM); in assay [3] (setting [5]) it was 1 µg/mL (≈ 1.69 µM); in assay [4], 1 µg/mL (≈ 1.69 µM).
For the molecule `C[C@@H](NC(=O)Cn1cnnn1)[C@H]1C(=O)N2C(C(=O)O)=C(S[C@@H]3CN[C@H](C(=O)N4CCN(C[C@@H](O)CN)CC4)C3)[C@H](C)[C@H]12` [Example 442, (4R,5S,6R)-6-((R)-1-(2-(1H-tetrazol-1-yl)acetamido)ethyl)-3-((3S,5S)-5-(4-((S)-3-amino-2-hydroxypropyl)piperazioe-1-carbonyl)pyrrolidin-3-ylthio)-4-methyl-7-oxo-1-azabicyclo[3.2.0]hept-2-ene-2-carboxylic acid], the minimal inhibitory concentration (MIC) in assay [1] came out at 2 µg/mL (≈ 3.3 µM); in assay [2] it was 0.125 µg/mL (≈ 0.206 µM); in assay [3] (setting [5]), 1 µg/mL (≈ 1.65 µM); in assay [4], 0.5 µg/mL (≈ 0.824 µM).
As for `C[C@@H](NC(=O)Cn1cnnn1)[C@H]1C(=O)N2C(C(=O)O)=C(S[C@@H]3CN[C@H](C(=O)N4CCC5(CCCN5)CC4)C3)[C@H](C)[C@H]12` [Example 352, (4R,5S,6R)-3-((3S,5S)-5-(1,8-diazaspiro[4.5]decane-8-carbonyl)pyrrolidin-3-ylthio)-6-((R)-1-(2-(1H-tetrazol-1-yl)acetamido)ethyl)-4-methyl-7-oxo-1-azabicyclo[3.2.0]hept-2-ene-2-carboxylic acid], the MIC in assay [1] amounted to 4 µg/mL (≈ 6.81 µM); in assay [2], 0.25 µg/mL (≈ 0.425 µM); in assay [3] (setting [5]), 2 µg/mL (≈ 3.4 µM); in assay [4] it was 2 µg/mL (≈ 3.4 µM).
Turning to `C[C@@H](NC(=O)Cn1cnnn1)[C@H]1C(=O)N2C(C(=O)O)=C(S[C@@H]3CN[C@H](C(=O)N4CCN(C(=O)[C@@H](N)CO)CC4)C3)[C@H](C)[C@H]12` [Example 420, (4R,5S,6R)-6-((R)-1-(2-(1H-tetrazol-1-yl)acetamido)ethyl)-3-((3S,5S)-5-(4-((S)-2-amino-3-hydroxypropanoyl)piperazine-1-carbonyl)pyrrolidin-3-ylthio)-4-methyl-7-oxo-1-azabicyclo[3.2.0]hept-2-ene-2-carboxylic acid], the MIC in assay [1] came to 4 µg/mL (≈ 6.44 µM); in assay [2] it was 0.25 µg/mL (≈ 0.403 µM); in assay [3] (setting [5]), 1 µg/mL (≈ 1.61 µM); in assay [4], 2 µg/mL (≈ 3.22 µM).

The record behind these values is patent US11180504B2 (ORCHID PHARMA LTD., priority 2016, dated 2021).
